HELM strings list units from the 5' end as sugar, base in round brackets, then linkage (d deoxyribose, r ribose, m 2'-O-methyl, p phosphodiester). Strings are as the collection lists them, not checked against the first reports. ss, as = sense and antisense strand; [fl2r] = 2'-fluoro
Details: siRNA
With “RNA1{r(C)p.r(C)p.r(C)p.r(U)p.r(C)p.r(C)p.r(C)p.r(C)p.[fl2r](U)p.r(G)p.r(U)p.r(C)p.r(C)p.r(C)p.r(C)p.r(G)p.r(C)p.r(U)p.r(U)p.r(T)p.r(T)}|RNA2{r(A)p.r(A)p.r(G)p.r(C)p.r(G)p.r(G)p.r(G)p.r(G)p.r(A)p.r(C)p.r(A)p.r(G)p.r(G)p.r(G)p.r(G)p.r(A)p.r(G)p.r(G)p.r(G)p.r(T)p.r(T)}$$$RNA1{StrandType:ss}|RNA2{StrandType:as}$” the target mRNA knockdown was 73%. Work on “RNA1{r(C)p.r(C)p.r(G)p.r(A)p.r(A)p.r(G)p.r(A)p.r(C)p.r(G)p.m(A)p.m(A)p.r(G)p.r(C)p.m(U)p.r(A)p.m(U)p.r(G)p.r(A)p.r(A)p.r(T)p.r(T)}|RNA2{r(U)p.r(U)p.m(C)p.r(A)p.m(U)p.r(A)p.r(G)p.r(C)p.r(U)p.r(U)p.r(C)p.r(G)p.r(U)p.r(C)p.r(U)p.r(U)p.r(C)p.r(G)p.r(G)p.r(T)p.r(T)}$$$RNA1{StrandType:ss}|RNA2{StrandType:as}$” yielded a target mRNA knockdown of 69%. Substance “RNA1{r(C)p.r(C)p.r(G)p.r(A)p.r(A)p.r(G)p.r(A)p.r(C)p.r(G)p.r(A)p.r(A)p.r(G)p.r(C)p.[fl2r](U)p.r(A)p.[fl2r](U)p.r(G)p.r(A)p.r(A)p.r(T)p.r(T)}|RNA2{r(U)p.r(U)p.[fl2r](C)p.r(A)p.[fl2r](U)p.r(A)p.r(G)p.r(C)p.r(U)p.r(U)p.r(C)p.r(G)p.r(U)p.r(C)p.r(U)p.r(U)p.r(C)p.r(G)p.r(G)p.r(T)p.r(T)}$$$RNA1{StrandType:ss}|RNA2{StrandType:as}$” has a target mRNA knockdown of 46%. Substance “RNA1{r(C)p.r(C)p.r(G)p.r(A)p.r(A)p.r(G)p.r(A)p.r(C)p.r(G)p.r(A)p.r(A)p.r(G)p.r(C)p.m(U)p.r(A)p.r(U)p.r(G)p.r(A)p.r(A)p.r(T)p.r(T)}|RNA2{r(U)p.r(U)p.m(C)p.r(A)p.r(U)p.r(A)p.r(G)p.r(C)p.r(U)p.r(U)p.r(C)p.r(G)p.r(U)p.r(C)p.r(U)p.r(U)p.r(C)p.r(G)p.r(G)p.r(T)p.r(T)}$$$RNA1{StrandType:ss}|RNA2{StrandType:as}$” has a target mRNA knockdown of 71%. Work on “RNA1{r(C)p.r(C)p.r(G)p.r(A)p.r(A)p.r(G)p.r(A)p.r(C)p.r(G)p.r(A)p.r(A)p.r(G)p.r(C)p.r(U)p.r(A)p.r(U)p.r(G)p.r(A)p.r(A)p.r(T)p.r(T)}|RNA2{r(U)p.r(U)p.r(C)p.r(A)p.[fl2r](U)p.r(A)p.r(G)p.r(C)p.r(U)p.r(U)p.r(C)p.r(G)p.r(U)p.r(C)p.r(U)p.r(U)p.r(C)p.r(G)p.r(G)p.r(T)p.r(T)}$$$RNA1{StrandType:ss}|RNA2{StrandType:as}$” yielded a target mRNA knockdown of 47%. “RNA1{r(C)p.r(C)p.r(G)p.r(A)p.r(G)p.r(A)p.r(G)p.m(C)p.r(U)p.r(C)p.m(U)p.r(C)p.r(C)p.m(U)p.r(A)p.r(C)p.r(C)p.r(U)p.r(U)p.r(T)p.r(T)}|RNA2{r(A)p.r(A)p.r(G)p.r(G)p.m(U)p.r(A)p.r(G)p.r(G)p.r(A)p.r(G)p.r(A)p.r(G)p.r(C)p.r(U)p.r(C)p.r(U)p.r(C)p.r(G)p.r(G)p.r(T)p.r(T)}$$$RNA1{StrandType:ss}|RNA2{StrandType:as}$” gave a target mRNA knockdown of 72%. With “RNA1{r(C)p.r(C)p.r(G)p.r(A)p.r(G)p.r(A)p.r(G)p.r(C)p.r(U)p.r(C)p.r(U)p.r(C)p.r(C)p.m(U)p.r(A)p.r(C)p.r(C)p.r(U)p.r(U)p.r(T)p.r(T)}|RNA2{r(A)p.r(A)p.r(G)p.r(G)p.m(U)p.r(A)p.r(G)p.r(G)p.r(A)p.r(G)p.r(A)p.r(G)p.r(C)p.r(U)p.r(C)p.r(U)p.r(C)p.r(G)p.r(G)p.r(T)p.r(T)}$$$RNA1{StrandType:ss}|RNA2{StrandType:as}$” the target mRNA knockdown was 75%. “RNA1{r(C)p.r(C)p.r(G)p.r(C)p.r(C)p.r(C)p.r(G)p.r(G)p.r(C)p.r(G)p.r(G)p.r(C)p.m(G)p.r(C)p.r(C)p.r(U)p.r(U)p.m(U)p.m(A)p.r(T)p.r(T)}|RNA2{m(U)p.m(A)p.r(A)p.r(A)p.r(G)p.r(G)p.r(C)p.r(G)p.r(C)p.r(C)p.r(G)p.r(C)p.r(C)p.r(G)p.r(G)p.r(G)p.r(C)p.r(G)p.r(G)p.r(T)p.r(T)}$$$RNA1{StrandType:ss}|RNA2{StrandType:as}$” gave a target mRNA knockdown of 85%.

From the OligoGym collection
Further: test system not given here.
